{"source": "paper PMC10296094", "about": "“K-Ras Binds Calmodulin-Related Centrin1 with Potential Implications for K-Ras Driven Cancer Cell Stemness” (Cancers, 2023)", "key": {"CaM": {"target": "CaM", "details": "F-PMCA peptide as probe; read-out: CaM Kd (References); cited from earlier work"}, "centrin1": {"target": "T1, centrin1 (Homo sapiens, UniProt Q12798)", "T1 sequence (Q12798 1-172)": "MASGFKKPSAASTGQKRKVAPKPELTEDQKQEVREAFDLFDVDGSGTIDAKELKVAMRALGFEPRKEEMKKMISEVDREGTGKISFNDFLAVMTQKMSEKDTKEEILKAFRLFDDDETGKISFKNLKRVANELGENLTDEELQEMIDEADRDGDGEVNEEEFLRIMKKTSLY", "assay": "Fluorescence anisotropy competition: displacement of F-Sfi1 from centrin1 by CaM inhibitors", "type": "binding", "description": "The Sfi1 peptide was derived from 670-REVAA-RESQH-NRQLL-RGALR-RWK-692 of human Sfi1 and the fluorescein was attached to the native C-terminal Lys. Sfi1 peptide titration was performed in a buffer composed of 10 mM HEPES pH 7.4, 100 mM CaCl2, and 0.005% v/v Tween 20. For binding, to a 2-fold dilution series of centrin1, 100 nM of Sfi1 peptide was added, and the reaction mix was incubated for 45 min at RT before anisotropy measurements. For measuring the IC50 of inhibitors to centrin1, to the 3-fold dilution series of inhibitors in the assay buffer, a complex of 100 nM fluorescein labelled Sfi1 peptide and 250 nM His-centrin1 was added in 20 µL volume in a 384-well plate. The fluorescence anisotropy was measured after overnight incubation at RT.\nThe fluorescence anisotropy was measured on a Clariostar (BMG Labtech, Ortenberg, Germany) plate reader using the fluorescence intensity signal recorded from vertical (Iv)- and horizontal (Ih)-polarised light using a fluorescence polarisation module (λexcitation 482 ± 8 nm and λemission 530 ± 20 nm). Fluorescence anisotropy was calculated from the measured fluorescence intensities according to r=Iv−GλIh/Iv+2GλIh, where r is the fluorescence anisotropy value and Iv and Ih are the fluorescence emission intensities detected with vertical and horizontal polarisation, respectively. The instrument specific correction factor G(λ) was set to 1 and not determined further. A quadratic equation as described by others was defined in Prism (GraphPad, version 9.5.1, La Jolla, CA, USA) and was used to determine the KD value of the fluorescein tagged peptides to target protein. y=Af+Ab−Af∗(Lt+KD+x−Lt+KD+x^2−4∗Lt∗x/2Lt\nThe IC50 value of inhibitors was determined by plotting the log concentration of inhibitor against fluorescence anisotropy values and fitting the data to log inhibitor vs. response—variable slope (four parameters) equation in Prism (GraphPad)."}, "K-RasG12V/centrin1": {"target": "T2, K-RasG12V/centrin1 (Homo sapiens, UniProt Q12798)", "T2 construct": "expressed in transfected cells; host or cells: HEK293-ebna", "T2 sequence (Q12798 1-172)": "T1 sequence (Q12798 1-172)", "assay": "Cellular BRET Rluc8-K-RasG12V/GFP2-centrin1 in HEK293-ebna cells", "type": "cell-based", "details": "for effect on BRETtop of K-RasG12V/centrin1: ophiobolin A 2.5 µM, calmidazolium 10 µM, calmirasone1 20 µM, 24 h, n = 3", "protocol": "Briefly, ~200,000 HEK293-ebna cells were seeded per well of a 12-well plate (cat. no. 665180, Greiner Bio-One, Vivoorde, Belgium) and grown in 1 mL of complete DMEM. The next day, ~1 µg of BRET sensor plasmids was transfected using 2.5 µL of jetPRIME. The concentration of donor plasmid was 25 ng, and that of the acceptor plasmid had increased from 25 ng to 1000 ng for titration curves. Cells were treated with inhibitors or vehicle control (DMSO at 0.2% v/v) 24 h after transfection. Cells were collected the following day in PBS and plated in white, flat bottom 96-well plates (cat. no. 236108, Nunc, Thermo Fisher Scientific). BRET measurements were performed on a Clariostar plate reader (BMG Labtech). Three channels were read. The first channel was First, GFP2-fluorescence (λexcitation 405 ± 10 nm and λemission 515 ± 10 nm), which is directly proportional to the acceptor concentration (RFU). Second, the channel was read after adding coelenterazine 400a (cat. no. C-320, GoldBio, Saint Louis, MO, USA; at 10 μM final concentration) BRET-channel (515 ± 15 nm) readings in well-mode, and then again (third) with the luminescence channel (410 ± 40 nm), and recordings were made. Signals corresponded to the BRET signal and donor (RLU) signals. The ratio of BRET signal/RLU gave the raw BRET ratio. The final BRET ratio (BRET in plots) was obtained by subtracting the raw BRET ratio from the background raw BRET ratio of cells expressing only the donor. The relative expression is calculated as the ratio of RFU/RLU and denoted as [Acceptor]/[Donor]. […]\nFor dose response analysis of inhibitors, on day one, ~200,000 HEK293-ebna cells were seeded per well of a 12-well plate (cat. No. 665180, Greiner Bio-One, Vivoorde, Belgium) and grown in complete DMEM. […] The log inhibitor vs BRET ratio was plotted, and the data were fitted by a log (inhibitor) vs. response variable slope (four parameters) equation of Prism, and the IC50 values were calculated."}, "K-Ras/CaM": {"test_system": "K-Ras/CaM", "assay": "Cellular BRET donor saturation titration Rluc8-K-Ras/GFP2-CaM in HEK293-ebna cells", "type": "cell-based, human", "details": "10 µM mevastatin, 24 h", "description": "(§1) The detailed method of our BRET assay can be found in [9, 43]. Briefly, ~200,000 HEK293-ebna cells were seeded per well of a 12-well plate (cat. no. 665180, Greiner Bio-One, Vivoorde, Belgium) and grown in 1 mL of complete DMEM. The next day, ~1 µg of BRET sensor plasmids was transfected using 2.5 µL of jetPRIME. The concentration of donor plasmid was 25 ng, and that of the acceptor plasmid had increased from 25 ng to 1000 ng for titration curves. Cells were treated with inhibitors or vehicle control (DMSO at 0.2% v/v) 24 h after transfection. Cells were collected the following day in PBS and plated in white, flat bottom 96-well plates (cat. no. 236108, Nunc, Thermo Fisher Scientific). BRET measurements were performed on a Clariostar plate reader (BMG Labtech). Three channels were read. The first channel was First, GFP2-fluorescence (λexcitation 405 ± 10 nm and λemission 515 ± 10 nm), which is directly proportional to the acceptor concentration (RFU). Second, the channel was read after adding coelenterazine 400a (cat. no. C-320, GoldBio, Saint Louis, MO, USA; at 10 μM final concentration) BRET-channel (515 ± 15 nm) readings in well-mode, and then again (third) with the luminescence channel (410 ± 40 nm), and recordings were made. Signals corresponded to the BRET signal and donor (RLU) signals. […] The relative expression is calculated as the ratio of RFU/RLU and denoted as [Acceptor]/[Donor]. […]"}, "K-Ras/centrin1": {"test_system": "K-Ras/centrin1", "assay": "Cellular BRET donor saturation titration Rluc8-K-Ras/GFP2-centrin1 in HEK293-ebna cells", "type": "cell-based, human", "details": "10 µM mevastatin, 24 h", "description": "as §1"}, "CTK/centrin1": {"test_system": "CTK/centrin1", "assay": "Cellular BRET donor saturation titration Rluc8-CTK/GFP2-centrin1 in HEK293-ebna cells", "type": "cell-based, human", "details": "10 µM mevastatin, 24 h", "description": "as §1"}, "CTK/CaM": {"test_system": "CTK/CaM", "assay": "Cellular BRET donor saturation titration Rluc8-CTK/GFP2-CaM in HEK293-ebna cells", "type": "cell-based, human", "details": "10 µM mevastatin, 24 h", "description": "as §1"}, "[1]": {"details": "100 nM F-Sfi1 and 250 nM His-centrin1, overnight at RT, Kd converted from IC50, read-out: Centrin1 Mean Kd (Repeat Values)"}}, "note": "Like-named read-outs stand apart in the source and are kept apart here.", "data": [{"smiles": "NCCCCCCNS(=O)(=O)c1cccc2c(Cl)cccc12", "note": "[W-7]", "values": [{"measurement": "Kd", "setting": "CaM", "value": 1.47, "unit": "µM"}, {"measurement": "Kd", "setting": "centrin1; [1]", "value": 18.2, "unit": "µM"}]}, {"smiles": "Clc1ccc(C(c2ccc(Cl)cc2)n2cc[n+](CC(OCc3ccc(Cl)cc3Cl)c3ccc(Cl)cc3Cl)c2)cc1", "note": "(centres unmarked) [calmidazolium, calmidazolium chloride]", "values": [{"measurement": "Kd", "setting": "CaM", "value": 0.0135, "unit": "µM"}, {"measurement": "IC50", "setting": "K-RasG12V/centrin1; HEK293-ebna, donor/acceptor plasmid ratio 1/19, 24 h treatment, n = 2, read-out: IC50, inhibition of K-RasG12V/centrin1 BRET interaction", "value": "10.44 ± 0.05", "unit": "µM"}, {"measurement": "effect on BRETtop of K-RasG12V/centrin1", "setting": "K-RasG12V/centrin1", "value": "lowered"}, {"measurement": "Kd", "setting": "centrin1; [1]", "value": 1.6, "unit": "µM"}]}, {"smiles": "CC[C@H](C)C(=O)O[C@H]1CCC=C2C=C[C@H](C)[C@H](CC[C@@H]3C[C@@H](O)CC(=O)O3)[C@H]21", "note": "[mevastatin]", "values": [{"measurement": "effect on BRET-levels of K-Ras with CaM", "setting": "K-Ras/CaM", "value": "did not significantly affect"}, {"measurement": "BRETtop (K-Ras + CaM)", "setting": "K-Ras/CaM; n = 3", "value": "0.097 ± 0.005"}, {"measurement": "effect on BRET-levels of K-Ras with centrin1", "setting": "K-Ras/centrin1", "value": "did not significantly affect"}, {"measurement": "BRETtop (K-Ras + centrin1)", "setting": "K-Ras/centrin1; n = 3", "value": "0.078 ± 0.005"}, {"measurement": "effect on BRET of CTK with centrin1", "setting": "CTK/centrin1", "value": "did not decrease"}, {"measurement": "BRETtop (CTK + centrin1)", "setting": "CTK/centrin1; n = 3", "value": "0.061 ± 0.003"}, {"measurement": "effect on BRET of CTK with CaM", "setting": "CTK/CaM", "value": "did not decrease"}, {"measurement": "BRETtop (CTK + CaM)", "setting": "CTK/CaM; n = 3", "value": "0.063 ± 0.004"}]}, {"smiles": "CC(C)=C[C@H]1C[C@H](C)[C@]2(CC[C@]3(C)C[C@H]4[C@H](C(=O)C[C@@]4(C)O)/C(C=O)=C\\C[C@H]32)O1", "note": "[ophiobolin A]", "values": [{"measurement": "Kd", "setting": "CaM", "value": 3.5, "unit": "µM"}, {"measurement": "effect on BRETtop of K-RasG12V/centrin1", "setting": "K-RasG12V/centrin1", "value": "lowered"}, {"measurement": "Kd", "setting": "centrin1", "value": 49, "unit": "µM"}]}]}
